In patent US20220288069A1, “INHIBITORS OF TYROSINE KINASE” (BridGene Biosciences, Inc., priority 2019, published 2022):

Legend:
[1] = target: T1, FLT3 (Homo sapiens, UniProt P36888); experiment: Caliper mobility shift kinase inhibition assay, FLT3; format: biochemical; conditions: recombinant kinase; enzyme 0.1 nM, ATP 95 μM, incubation 3 hr
T1 construct: purchased ThermoFisher PV3182
T1 sequence (P36888 27-993): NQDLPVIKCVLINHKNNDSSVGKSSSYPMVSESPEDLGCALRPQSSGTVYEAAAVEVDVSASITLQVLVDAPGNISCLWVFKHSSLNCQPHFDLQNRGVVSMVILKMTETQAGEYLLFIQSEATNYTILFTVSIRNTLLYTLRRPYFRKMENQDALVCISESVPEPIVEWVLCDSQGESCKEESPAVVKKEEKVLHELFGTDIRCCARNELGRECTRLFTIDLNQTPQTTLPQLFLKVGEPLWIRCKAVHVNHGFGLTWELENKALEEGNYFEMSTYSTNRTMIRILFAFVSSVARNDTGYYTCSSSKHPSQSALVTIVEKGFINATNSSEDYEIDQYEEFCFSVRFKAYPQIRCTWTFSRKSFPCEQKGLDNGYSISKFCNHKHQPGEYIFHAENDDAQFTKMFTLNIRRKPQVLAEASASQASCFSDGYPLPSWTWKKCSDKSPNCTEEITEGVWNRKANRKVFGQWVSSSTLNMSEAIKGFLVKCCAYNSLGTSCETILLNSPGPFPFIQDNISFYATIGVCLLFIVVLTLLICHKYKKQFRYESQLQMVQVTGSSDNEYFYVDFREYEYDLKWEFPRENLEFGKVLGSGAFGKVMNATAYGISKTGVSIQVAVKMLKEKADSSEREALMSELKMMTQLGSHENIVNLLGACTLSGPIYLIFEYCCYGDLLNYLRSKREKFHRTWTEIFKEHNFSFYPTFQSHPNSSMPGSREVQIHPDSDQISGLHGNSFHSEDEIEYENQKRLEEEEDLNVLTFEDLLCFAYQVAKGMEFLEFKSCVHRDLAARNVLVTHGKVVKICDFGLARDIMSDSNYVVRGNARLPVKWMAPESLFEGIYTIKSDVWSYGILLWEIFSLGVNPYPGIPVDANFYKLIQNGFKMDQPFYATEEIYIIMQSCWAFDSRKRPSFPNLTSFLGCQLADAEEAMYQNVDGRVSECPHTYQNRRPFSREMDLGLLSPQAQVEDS
Description: Compounds' inhibition of recombinant kinases (FGR, FLT3, FMS, KIT, or RON) was measured using Caliper mobility shift assay, which is based on the difference in capillary electrophoresis mobility of a fluorescent-tagged peptide as a result of a phosphorylation by the kinase under study. Reactions were started by the addition of various concentrations of a compound (originally in DMSO solution) to a kinase solution in assay buffer followed by addition of a mixture of ATP and a fluorescent-tagged peptide substrate in assay buffer. Concentrations of the enzyme, ATP and the peptide were pre-optimized so that 15% substrate conversion to ensure initial velocity measurements. After incubation for 3 hours at room temperature, the kinase reaction was quenched by the addition of a concentrated EDTA solution before analysis on a LabChip EZ Reader II to yield percentage inhibition by comparing to the DMSO control.
Table 2 below summarizes the assay conditions for the characterization of the kinase inhibition properties of the disclosed compounds.

[2] = tested on: Kasumi−1; experiment: Cell viability assay (CellTiter-Glo), Kasumi-1; format: cell-based; conditions: Homo sapiens, Kasumi-1 cells, 72 hr
Description: (§1) Cell viability assay was performed based on the following brief procedures. Cells were plated at the density of 5K/well with volume of […] in 96-well white plate and clear bottom plates. 20 μL of veh. or compound was added at proper concentration to the well. The final volume is 200 μL, with final conc. of DMSO32 0.1%, 11 points, triplicates. The cells were then treated at 37° C. in the TC incubator for 72 hr. Equal volume (200 μL) of CellTiter-Glo reagent (Promega) was added to the well and protect from light at room temperature for 15 min. The chemiluminicent was measured with EnSight (Perkin Elmer). GraphPad Prism non-linear regression, Log[inhibitor] response with four parameters were used to calculate GI50.

[3] = tested on: THP−1; experiment: Cell viability assay (CellTiter-Glo), THP-1; format: cell-based; conditions: THP-1 cells, 72 hr; for GI50: Homo sapiens
Description: as §1

[4] = tested on: MV4−11; experiment: Cell viability assay (CellTiter-Glo), MV4-11; format: cell-based; conditions: Homo sapiens, MV4-11 cells, 72 hr
Description: as §1

| SMILES | IC50 [1] [µM] | GI50 [3] [µM] | GI50 [4] [µM] | THP−1 GI50 [3] | GI50 [2] [µM] |
| --- | --- | --- | --- | --- | --- |
| C/C=C/C(=O)N(C)[C@@H](C)C(=O)NCCOc1cc(Nc2ncc(-c3ccccc3)s2)nc(C)n1 [Compound 16, N-methyl-N-[(1S)-1-methyl-2-[2-[2-methyl-6-[(5-phenylthiazol-2-yl)amino]pyrimidin-4-yl]oxyethylamino]-2-oxoethyl]but-2-enamide] | 0.01 to 0.1 | – | – | – | – |
| Cc1nc(NCCNC(=O)[C@H](C)N(C)C(=O)/C=C/CN(C)C)cc(Nc2ncc(-c3ccccc3)s2)n1 [Compound 11] | < 0.01 | ≥ 1 | < 0.01 | – | < 0.01 |
| CCc1nc(NCCNC(=O)[C@H](C)N(C)C(=O)/C=C/CN(C)C)cc(Nc2ncc(C3CCC3)s2)n1 [Compound 8, (E)-N-[(1S)-2-[2-[[6-[(5-cyclobutylthiazol-2-yl)amino]-2-ethyl-pyrimidin-4-yl]amino]ethylamino]-1-methyl-2-oxo-ethyl]-4-(dimethylamino)-N-methyl-but-2-enamide] | < 0.01 | ≥ 1 | < 0.01 | – | 0.1 to 1 |
| CCC(=O)N(C)[C@@H](C)C(=O)NCCNC(=O)c1c[nH]c(/C=C2\C(=O)Nc3ccc(F)cc32)c1C [Compound 24, 5-[(5-fluoro-2-oxo-indolin-3-ylidene)methyl]-4-methyl-N-[2-[[(2S)-2-[methyl(propanoyl)amino]propanoyl]amino]ethyl]-1H-pyrrole-3-carboxamide] | 0.01 to 0.1 | – | 0.01 to 0.1 | = | – |
| C=CC(=O)N1CCC[C@H]1C(=O)NCCNc1cc(Nc2ncc(-c3ccncc3)s2)nc(C)n1 [Compound 22, (2S)—N-[2-[[2-methyl-6-[[5-(4-pyridyl)thiazol-2-yl]amino]pyrimidin-4-yl]amino]ethyl]-1-prop-2-enoyl-pyrrolidine-2-carboxamide] | < 0.01 | – | – | – | – |
| C=CC(=O)N1CCN(C)C[C@H]1C(=O)NCCOc1cc(Nc2ncc(-c3ccccc3)s2)nc(C)n1 [Compound 15, (2S)-4-methyl-N-[2-[2-methyl-6-[(5-phenylthiazol-2-yl)amino]pyrimidin-4-yl]oxyethyl]-1-prop-2-enoyl-piperazine-2-carboxamide] | < 0.01 | – | – | – | – |
| C=CC(=O)N1CCOC[C@H]1C(=O)NCCOc1cc(Nc2ncc(-c3ccccc3)s2)nc(C)n1 [Compound 14, (3S)—N-[2-[2-methyl-6-[(5-phenylthiazol-2-yl)amino]pyrimidin-4-yl]oxyethyl]-4-prop-2-enoyl-morpholine-3-carboxamide] | < 0.01 | – | – | – | – |
| C=CC(=O)N(C)[C@@H](C)C(=O)NCCNC(=O)c1c[nH]c(/C=C2\C(=O)Nc3ccc(F)cc32)c1C [Compound 23, 5-[(5-fluoro-2-oxo-indolin-3-ylidene)methyl]-4-methyl-N-[2-[[(2S)-2-[methyl(prop-2-enoyl)amino]propanoyl]amino]ethyl]-1H-pyrrole-3-carboxamide] | < 0.01 | ≥ 1 | < 0.01 | – | – |
| C=CC(=O)N(C)[C@@H](C)C(=O)NCCN(C)c1cc(Nc2ncc(-c3ccncc3)s2)nc(C)n1 [Compound 19, (2S)—N-[2-[methyl-[2-methyl-6-[[5-(4-pyridyl)thiazol-2-yl]amino]pyrimidin-4-yl]amino]ethyl]-2-[methyl(prop-2-enoyl)amino]propanamide] | < 0.01 | – | – | – | – |
| C=CC(=O)N(C)[C@@H](C)C(=O)NCCNc1cc(Nc2ncc(C3CCC3)s2)nc(CC)n1 [Compound 6, (2S)—N-[2-[[6-[(5-cyclobutylthiazol-2-yl)amino]-2-ethyl-pyrimidin-4-yl]amino]ethyl]-2-[methyl(prop-2-enoyl)amino]propanamide] | < 0.01 | 0.01 to 0.1 | < 0.01 | – | < 0.01 |

Continued, in another order:

| IC50 [1] [µM] | GI50 [3] [µM] | GI50 [4] [µM] | THP−1 GI50 [3] | SMILES | GI50 [2] [µM] |
| --- | --- | --- | --- | --- | --- |
| < 0.01 | ≥ 1 | 0.01 to 0.1 | – | Cc1cc(Nc2cc(NCCNC(=O)[C@@H]3COCCN3C(=O)/C=C/CN(C)C)nc(Nc3ccc(CC#N)cc3)n2)n[nH]1 [Compound 2] | 0.1 to 1 |
| < 0.01 | ≥ 1 | < 0.01 | – | C=CC(=O)N(C)[C@@H](C)C(=O)NC[C@@H]1CCc2c([nH]c(/C=C3\C(=O)Nc4ccc(F)cc43)c2C)C1 [Compound 28, (2S)—N-[[(6R)-2-[(5-fluoro-2-oxo-indolin-3-ylidene)methyl]-3-methyl-4,5,6,7-tetrahydro-1H-indol-6-yl]methyl]-2-[methyl(prop-2-enoyl)amino]propanamide] | – |
| < 0.01 | 0.1 to 1 | < 0.01 | – | C=CC(=O)N(C)[C@@H](C)C(=O)NCCOc1cc(Nc2ncc(C3CCC3)s2)nc(CC)n1 [Compound 7, (2S)—N-[2-[6-[(5-cyclobutylthiazol-2-yl)amino]-2-ethyl-pyrimidin-4-yl]oxyethyl]-2-[methyl(prop-2-enoyl)amino]propanamide] | < 0.01 |
| < 0.01 | ≥ 1 | < 0.01 | – | Cc1c(/C=C2\C(=O)Nc3ccc(F)cc32)[nH]c2c1CC[C@H](CNC(=O)[C@H](C)N(C)C(=O)/C=C/CN(C)C)C2 [Compound 29, (E)-4-(dimethylamino)-N-[(1S)-2-[[(6S)-2-[(Z)-(5-fluoro-2-oxo-indolin-3-ylidene)methyl]-3-methyl-4,5,6,7-tetrahydro-1H-indol-6-yl]methylamino]-1-methyl-2-oxo-ethyl]-N-methyl-but-2-enamide] | – |
| < 0.01 | ≥ 1 | < 0.01 | – | C=CC(=O)N(C)[C@@H](C)C(=O)NC[C@H]1CCc2c([nH]c(/C=C3\C(=O)Nc4ccc(F)cc43)c2C)C1 [Compound 27, (2S)—N-[[(6S)-2-[(5-fluoro-2-oxo-indolin-3-ylidene)methyl]-3-methyl-4,5,6,7-tetrahydro-1H-indol-6-yl]methyl]-2-[methyl(prop-2-enoyl)amino]propanamide] | – |
| < 0.01 | – | – | – | C=CC(=O)N1CCC[C@H]1C(=O)N[C@H]1CCN(c2cc(Nc3ncc(-c4ccncc4)s3)nc(C)n2)C1 [Compound 21, (2S)—N-[(3S)-1-[2-methyl-6-[[5-(4-pyridyl)thiazol-2-yl]amino]pyrimidin-4-yl]pyrrolidin-3-yl]-1-prop-2-enoyl-pyrrolidine-2-carboxamide] | – |
| < 0.01 | ≥ 1 | < 0.01 | – | Cc1c(/C=C2\C(=O)Nc3ccc(F)cc32)[nH]c2c1CC[C@@H](CNC(=O)[C@H](C)N(C)C(=O)/C=C/CN(C)C)C2 [Compound 30, (E)-4-(dimethylamino)-N-[(1S)-2-[[(6R)-2-[(Z)-(5-fluoro-2-oxo-indolin-3-ylidene)methyl]-3-methyl-4,5,6,7-tetrahydro-1H-indol-6-yl]methylamino]-1-methyl-2-oxo-ethyl]-N-methyl-but-2-enamide] | – |
| < 0.01 | – | – | – | C=CC(=O)N(C)[C@@H](C)C(=O)N[C@H]1CCN(c2cc(Nc3ncc(-c4ccncc4)s3)nc(C)n2)C1 [Compound 20, (2S)-2-[methyl(prop-2-enoyl)amino]-N-[(3S)-1-[2-methyl-6-[[5-(4-pyridyl)thiazol-2-yl]amino]pyrimidin-4-yl]pyrrolidin-3-yl]propanamide] | – |
| < 0.01 | ≥ 1 | < 0.01 | – | CC#CC(=O)N(C)[C@@H](C)C(=O)NCCNC(=O)c1c[nH]c(/C=C2\C(=O)Nc3ccc(F)cc32)c1C [Compound 25, N-[2-[[(2S)-2-[but-2-ynoyl(methyl)amino]propanoyl]amino]ethyl]-5-[(5-fluoro-2-oxo-indolin-3-ylidene)methyl]-4-methyl-1H-pyrrole-3-carboxamide] | – |
